In patent US11667649B2, “Heteroaromatic macrocyclic ether chemotherapeutic agents” (Nuvalent, Inc., priority 2020, dated 2023):

Test system: TPM3-NTRK1-wt IC50 / primary target (e.g. CD74-ROS1-wt) IC50, Ba/F3 cells
Assay: Cell assay TRKA selectivity (TRKA potency divided by primary target potency)
Assay type: cell-based
Details: for TPM3-NTRK1-wt/CD74-ROS1-G2032R: TRKA selectivity ratio: TPM3-NTRK1-wt IC50 / CD74-ROS1-G2032R IC50, Ba/F3 cells; for TPM3-NTRK1-wt/CD74-ROS1-wt: TRKA selectivity ratio: TPM3-NTRK1-wt IC50 / CD74-ROS1-wt IC50, Ba/F3 cells; for TPM3-NTRK1-wt/EML4-ALK-L1196M-G1202R: TRKA selectivity ratio: TPM3-NTRK1-wt IC50 / EML4-ALK-L1196M-G1202R IC50, Ba/F3 cells; for TPM3-NTRK1-wt/EML4-ALK-wt: TRKA selectivity ratio: TPM3-NTRK1-wt IC50 / EML4-ALK-wt IC50, Ba/F3 cells
Method in brief: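 Ratio of TRKA to primary-target cellular IC50 (e.g. TPM3-NTRK1-wt/CD74-ROS1-wt), grouped into bins A >30, B >10, C ≥1, D <1. Each IC50 came from engineered Ba/F3 fusion lines grown without IL-3, dosed for 72 h and read as CellTiter-Glo luminescence, with a four-parameter logistic fit.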

Row | Structure (SMILES) | TPM3-NTRK1-wt/CD74-ROS1-G2032R | TPM3-NTRK1-wt/CD74-ROS1-wt | TPM3-NTRK1-wt/EML4-ALK-L1196M-G1202R | TPM3-NTRK1-wt/EML4-ALK-wt
1 | Nc1ncc2cc1OCc1cc(F)ccc1-n1nc(Cl)cc1Cc1nnn(CC3CC3)c1-2 [Example 110, 10-chloro-3-(cyclopropylmethyl)-16-fluoro-20-oxa-3,4,5,11,12,23-hexaazapentacyclo[19.3.1.0^2,^6.0^8,^12.0^13,^18]pentacosa-1(24),2(6),4,8,10,13,15,17,21(25),22-decaen-22-amine] | A (bin A for very high selectivity, ratio>30-fold) | A (bin A for very high selectivity, ratio>30-fold) | A (bin A for very high selectivity, ratio>30-fold) | A (bin A for very high selectivity, ratio>30-fold)
2 | C[C@H]1Oc2cc(cnc2N)-c2c(nnn2CC2CC2)Cc2cc(F)cnc2-c2ccc(F)cc21 [Example 106, (20R)-3-(cyclopropylmethyl)-10,17-difluoro-20-methyl-21-oxa-3,4,5,12,24-pentaazapentacyclo[20.3.1.0^2,^6.0^8,^13.0^14,^19]hexacosa-1(25),2(6),4,8(13),9,11,14,16,18,22(26),23-undecaen-23-amine] | A (bin A for very high selectivity, ratio>30-fold) | A (bin A for very high selectivity, ratio>30-fold) | B (bin B for high selectivity, ratio>10-fold) | A (bin A for very high selectivity, ratio>30-fold)
3 | CCn1ncc2c1-c1cnc(N)c(c1)O[C@H](C)c1cc(F)ccc1-n1nc(C#N)cc1C2 [Example 51, (19R)-22-amino-3-ethyl-16-fluoro-19-methyl-20-oxa-3,4,11,12,23-pentaazapentacyclo[19.3.1.0^2,^6.0^8,^12.0^13,^18]pentacosa-1(24),2(6),4,8,10,13,15,17,21(25),22-decaene-10-carbonitrile] | C (bin C for moderate selectivity, ratio≥1) | C (bin C for moderate selectivity, ratio≥1) | C (bin C for moderate selectivity, ratio≥1) | D (bin D for low selectivity, ratio<1)
4 | C[C@H]1Oc2cc(cnc2N)-c2c(CC(F)F)noc2Cc2cn(C)nc2-c2ccc(F)cc21 [Example 85, (19R)-3-(2,2-difluoroethyl)-16-fluoro-10,19-dimethyl-5,20-dioxa-4,10,11,23-tetraazapentacyclo[19.3.1.0^2,^6.0^8,^12.0^13,^18]pentacosa-1(24),2(6),3,8,11,13,15,17,21(25),22-decaen-22-amine] | A (bin A for very high selectivity, ratio>30-fold) | A (bin A for very high selectivity, ratio>30-fold) | C (bin C for moderate selectivity, ratio≥1) | A (bin A for very high selectivity, ratio>30-fold)
5 | C[C@H]1Oc2cc(cnc2N)-c2c(C3CCC3)noc2Cc2cn(C)nc2-c2ccc(F)cc21 [Example 26, (19R)-3-cyclobutyl-16-fluoro-10,19-dimethyl-5,20-dioxa-4,10,11,23-tetraazapentacyclo[19.3.1.0^2,^6.0^8,^12.0^13,^18]pentacosa-1(24),2(6),3,8,11,13,15,17,21(25),22-decaen-22-amine] | A (bin A for very high selectivity, ratio>30-fold) | A (bin A for very high selectivity, ratio>30-fold) | B (bin B for high selectivity, ratio>10-fold) | A (bin A for very high selectivity, ratio>30-fold)
6 | C[C@H]1Oc2cc(cnc2N)-c2c(C#N)nn(C)c2Cc2scnc2-c2ccc(F)cc21 [Example 94, (19R)-22-amino-16-fluoro-5,19-dimethyl-20-oxa-9-thia-4,5,11,23-tetraazapentacyclo[19.3.1.0^2,^6.0^8,^12.0^13,^18]pentacosa-1(24),2(6),3,8(12),10,13,15,17,21(25),22-decaene-3-carbonitrile] | A (bin A for very high selectivity, ratio>30-fold) | A (bin A for very high selectivity, ratio>30-fold) | A (bin A for very high selectivity, ratio>30-fold) | A (bin A for very high selectivity, ratio>30-fold)
7 | CCn1ncc2c1-c1cnc(N)c(n1)OC(C)c1cc(F)ccc1-c1c(cnn1C)C2 (stereo not drawn) [Example 164, 3-ethyl-16-fluoro-11,19-dimethyl-20-oxa-3,4,10,11,23,25-hexaazapentacyclo[19.3.1.0^2,^6.0^8,^12.0^13,^18]pentacosa-1(24),2(6),4,8(12),9,13,15,17,21(25),22-decaen-22-amine] | A (bin A for very high selectivity, ratio>30-fold) |  | C (bin C for moderate selectivity, ratio≥1) | B (bin B for high selectivity, ratio>10-fold)
8 | C[C@H]1Oc2cc(cnc2N)-c2c(C#N)nn(C)c2Cc2cccnc2-c2ccc(F)cc21 [Example 100, (20R)-23-amino-17-fluoro-5,20-dimethyl-21-oxa-4,5,12,24-tetraazapentacyclo[20.3.1.0^2,^6.0^8,^13.0^14,^19]hexacosa-1(25),2(6),3,8(13),9,11,14,16,18,22(26),23-undecaene-3-carbonitrile] | A (bin A for very high selectivity, ratio>30-fold) | A (bin A for very high selectivity, ratio>30-fold) | A (bin A for very high selectivity, ratio>30-fold) | A (bin A for very high selectivity, ratio>30-fold)
9 | Cc1nc2c(s1)Cc1cnn(C(F)F)c1-c1cnc(N)c(c1)O[C@H](C)c1cc(F)ccc1-2 [Example 72, (19R)-3-(difluoromethyl)-16-fluoro-10,19-dimethyl-20-oxa-9-thia-3,4,11,23-tetraazapentacyclo[19.3.1.0^2,^6.0^8,^12.0^13,^18]pentacosa-1(24),2(6),4,8(12),10,13,15,17,21(25),22-decaen-22-amine] | A (bin A for very high selectivity, ratio>30-fold) | A (bin A for very high selectivity, ratio>30-fold) | C (bin C for moderate selectivity, ratio≥1) | A (bin A for very high selectivity, ratio>30-fold)
10 | C[C@H]1Oc2cc(cnc2N)-c2c(nn(C)c2CC2CC2)Cc2cn(C)nc2-c2ccc(F)cc21 [Example 179, (19R)-3-(cyclopropylmethyl)-16-fluoro-4,10,19-trimethyl-20-oxa-4,5,10,11,23-pentaazapentacyclo[19.3.1.0^2,^6.0^8,^12.0^13,^18]pentacosa-1(24),2,5,8,11,13,15,17,21(25),22-decaen-22-amine] | A (bin A for very high selectivity, ratio>30-fold) | A (bin A for very high selectivity, ratio>30-fold) | A (bin A for very high selectivity, ratio>30-fold) | A (bin A for very high selectivity, ratio>30-fold)
